Source: US20060148730A1, “Method of treating tuberculosis” (priority 2003, published 2006)
In brackets after ≈: the same amount, converted by molar mass.

These compounds were tested on M. tuberculosis H37Rv (assay: MIC vs. M. tuberculosis H37Rv, microplate Alamar Blue assay (MABA)). Details: Mycobacterium tuberculosis, H37RV, Table 4; read-out: MIC.
Assay type: cell-based

In order of falling MIC:
1. CC[C@H]1OC(=O)[C@H](C)[C@@H](OC2CC(C)(OC)C(OC(=O)c3ccccc3)C(C)O2)[C@H](C)[C@@H](OC2OC(C)CC(N(C)C)C2OC(=O)c2ccccc2)[C@](C)(OC)C[C@@H](C)C(=O)[C@H](C)[C@H]2N(NCCCc3ccnc4ccccc34)C(=O)O[C@]12C (stereo partly shown) [Compound 1SH53b]  11 µM (≈ 12.8 µg/mL)
2. CC[C@H]1OC(=O)[C@H](C)[C@@H](OC2CC(C)(OC)C(OC(=O)c3ccccc3)C(C)O2)[C@H](C)[C@@H](OC2OC(C)CC(N(C)C)C2O)[C@](C)(OC)C[C@@H](C)C(=O)[C@H](C)[C@H]2N(NCCCc3ccnc4ccccc34)C(=O)O[C@]12C (stereo partly shown) [Compound 1SH53a]  1.69 µM (≈ 1.79 µg/mL)

Same assay, conditions: Table 1a, 11,12-carbamate derivatives; anti-TB activity; read-out: MIC

CCC1OC(=O)C(C)(F)C(=O)C(C)C(OC2OC(C)CC(N(C)C)C2O)C(C)(OC)CC(C)C(=O)C(C)C2N(NCCCc3ccnc4ccccc34)C(=O)OC12C (stereo not shown) [RU3562] gave an MIC of 16 µM (≈ 13 µg/mL).

Same assay, conditions: Table 2a, 11,12-diols; anti-TB activity; read-out: MIC

In the case of CC[C@H]1OC(=O)[C@H](C)C(=O)[C@H](C)[C@@H](O[C@@H]2O[C@H](C)C[C@H](N(C)C)[C@H]2O)[C@](C)(OC)C[C@@H](C)C(=O)[C@H](C)[C@@H](O)[C@]1(C)O [RU56006], the MIC is reported as greater than 128 µM.

Same assay, conditions: Table 3; parallel-synthesis carbazate library products, SPE purified; read-out: MIC

In order of falling MIC:
1. CC[C@H]1OC(=O)[C@H](C)[C@@H](O[C@H]2CC(C)(OC)[C@@H](O)[C@H](C)O2)[C@H](C)[C@@H](O[C@@H]2O[C@H](C)C[C@H](N(C)C)[C@H]2O)[C@](C)(OC)C[C@@H](C)C(=O)[C@H](C)[C@H]2N(NCc3c(C(F)(F)F)nn(C)c3Cl)C(=O)O[C@]12C (stereo partly shown) [D3′]  20 µM (≈ 19.7 µg/mL)
2. CC[C@H]1OC(=O)[C@H](C)[C@@H](O[C@H]2CC(C)(OC)[C@@H](O)[C@H](C)O2)[C@H](C)[C@@H](O[C@@H]2O[C@H](C)C[C@H](N(C)C)[C@H]2O)[C@](C)(OC)C[C@@H](C)C(=O)[C@H](C)[C@H]2N(NCc3ccc(N4CCC(c5ccccc5OC)CC4)c([N+](=O)[O-])c3)C(=O)O[C@]12C (stereo partly shown) [G12′]  19 µM (≈ 21.1 µg/mL)
3. CC[C@H]1OC(=O)[C@H](C)[C@@H](O[C@H]2CC(C)(OC)[C@@H](O)[C@H](C)O2)[C@H](C)[C@@H](O[C@@H]2O[C@H](C)C[C@H](N(C)C)[C@H]2O)[C@](C)(OC)C[C@@H](C)C(=O)[C@H](C)[C@H]2N(NCc3ccnc4ccccc34)C(=O)O[C@]12C (stereo partly shown) [D11′]  16 µM (≈ 14.9 µg/mL)
4. CC[C@H]1OC(=O)[C@H](C)[C@@H](O[C@H]2CC(C)(OC)[C@@H](O)[C@H](C)O2)[C@H](C)[C@@H](O[C@@H]2O[C@H](C)C[C@H](N(C)C)[C@H]2O)[C@](C)(OC)C[C@@H](C)C(=O)[C@H](C)[C@H]2N(NCc3nc4ccccc4s3)C(=O)O[C@]12C (stereo partly shown) [F7′]  16 µM (≈ 15 µg/mL)
5. CC[C@H]1OC(=O)[C@H](C)[C@@H](O[C@H]2CC(C)(OC)[C@@H](O)[C@H](C)O2)[C@H](C)[C@@H](O[C@@H]2O[C@H](C)C[C@H](N(C)C)[C@H]2O)[C@](C)(OC)C[C@@H](C)C(=O)[C@H](C)[C@H]2N(NCc3cc(Cl)cc(Br)c3O)C(=O)O[C@]12C (stereo partly shown) [G8′]  14 µM (≈ 14.1 µg/mL)
6. CC[C@H]1OC(=O)[C@H](C)[C@@H](O[C@H]2CC(C)(OC)[C@@H](O)[C@H](C)O2)[C@H](C)[C@@H](O[C@@H]2O[C@H](C)C[C@H](N(C)C)[C@H]2O)[C@](C)(OC)C[C@@H](C)C(=O)[C@H](C)[C@H]2N(NCc3sccc3Oc3ccccc3)C(=O)O[C@]12C (stereo partly shown) [G4′]  13 µM (≈ 12.7 µg/mL)
7. CC[C@H]1OC(=O)[C@H](C)[C@@H](O[C@H]2CC(C)(OC)[C@@H](O)[C@H](C)O2)[C@H](C)[C@@H](O[C@@H]2O[C@H](C)C[C@H](N(C)C)[C@H]2O)[C@](C)(OC)C[C@@H](C)C(=O)[C@H](C)[C@H]2N(NCc3cc(Br)cs3)C(=O)O[C@]12C (stereo partly shown) [F11′]  12.7 µM (≈ 12.2 µg/mL)
8. CC[C@H]1OC(=O)[C@H](C)[C@@H](O[C@H]2CC(C)(OC)[C@@H](O)[C@H](C)O2)[C@H](C)[C@@H](O[C@@H]2O[C@H](C)C[C@H](N(C)C)[C@H]2O)[C@](C)(OC)C[C@@H](C)C(=O)[C@H](C)[C@H]2N(NCc3cc4ccccc4s3)C(=O)O[C@]12C (stereo partly shown) [G2′]  11 µM (≈ 10.3 µg/mL)
9. CC[C@H]1OC(=O)[C@H](C)[C@@H](O[C@H]2CC(C)(OC)[C@@H](O)[C@H](C)O2)[C@H](C)[C@@H](O[C@@H]2O[C@H](C)C[C@H](N(C)C)[C@H]2O)[C@](C)(OC)C[C@@H](C)C(=O)[C@H](C)[C@H]2N(NCc3cn(S(=O)(=O)c4ccc(C)cc4)c4ccccc34)C(=O)O[C@]12C (stereo partly shown) [C4′]  11 µM (≈ 11.8 µg/mL)
10. CC[C@H]1OC(=O)[C@H](C)[C@@H](O[C@H]2CC(C)(OC)[C@@H](O)[C@H](C)O2)[C@H](C)[C@@H](O[C@@H]2O[C@H](C)C[C@H](N(C)C)[C@H]2O)[C@](C)(OC)C[C@@H](C)C(=O)[C@H](C)[C@H]2N(NC/C=C/c3cc(OC)c(O)c(OC)c3)C(=O)O[C@]12C (stereo partly shown) [A6′]  10.2 µM (≈ 10 µg/mL)
11. CC[C@H]1OC(=O)[C@H](C)[C@@H](O[C@H]2CC(C)(OC)[C@@H](O)[C@H](C)O2)[C@H](C)[C@@H](O[C@@H]2O[C@H](C)C[C@H](N(C)C)[C@H]2O)[C@](C)(OC)C[C@@H](C)C(=O)[C@H](C)[C@H]2N(/N=C/c3c(C)noc3-c3ccccc3)C(=O)O[C@]12C (stereo partly shown) [C12′]  9 µM (≈ 8.61 µg/mL)
12. CC[C@H]1OC(=O)[C@H](C)[C@@H](O[C@H]2CC(C)(OC)[C@@H](O)[C@H](C)O2)[C@H](C)[C@@H](O[C@@H]2O[C@H](C)C[C@H](N(C)C)[C@H]2O)[C@](C)(OC)C[C@@H](C)C(=O)[C@H](C)[C@H]2N(/N=C/c3cnc(-c4ccccc4)nc3C)C(=O)O[C@]12C (stereo partly shown) [E6′]  5 µM (≈ 4.84 µg/mL)

Work on CC[C@H]1OC(=O)[C@H](C)[C@@H](O[C@H]2CC(C)(OC)[C@@H](O)[C@H](C)O2)[C@H](C)[C@@H](O[C@@H]2O[C@H](C)C[C@H](N(C)C)[C@H]2O)[C@](C)(OC)C[C@@H](C)C(=O)[C@H](C)[C@H]2N(NCc3ccc4c(c3)nnn4C)C(=O)O[C@]12C (stereo partly shown) [H7′] yielded an MIC greater than 22 µM.
Compound CC[C@H]1OC(=O)[C@H](C)[C@@H](O[C@H]2CC(C)(OC)[C@@H](O)[C@H](C)O2)[C@H](C)[C@@H](O[C@@H]2O[C@H](C)C[C@H](N(C)C)[C@H]2O)[C@](C)(OC)C[C@@H](C)C(=O)[C@H](C)[C@H]2N(NCc3sc(C)nc3C)C(=O)O[C@]12C (stereo partly shown) [F5′] has an MIC greater than 19 µM.
For CC[C@H]1OC(=O)[C@H](C)[C@@H](O[C@H]2CC(C)(OC)[C@@H](O)[C@H](C)O2)[C@H](C)[C@@H](O[C@@H]2O[C@H](C)C[C@H](N(C)C)[C@H]2O)[C@](C)(OC)C[C@@H](C)C(=O)[C@H](C)[C@H]2N(NCc3cccnc3)C(=O)O[C@]12C (stereo partly shown) [D9′], the MIC was greater than 15 µM.
With CCCCc1nc(CNN2C(=O)O[C@]3(C)[C@@H](CC)OC(=O)[C@H](C)[C@@H](O[C@H]4CC(C)(OC)[C@@H](O)[C@H](C)O4)[C@H](C)[C@@H](O[C@@H]4O[C@H](C)C[C@H](N(C)C)[C@H]4O)[C@](C)(OC)C[C@@H](C)C(=O)[C@H](C)[C@@H]23)c(Cl)[nH]1 (stereo partly shown) [B7′] the MIC was greater than 19 µM.
CC[C@H]1OC(=O)[C@H](C)[C@@H](O[C@H]2CC(C)(OC)[C@@H](O)[C@H](C)O2)[C@H](C)[C@@H](O[C@@H]2O[C@H](C)C[C@H](N(C)C)[C@H]2O)[C@](C)(OC)C[C@@H](C)C(=O)[C@H](C)[C@H]2N(NCc3cccnc3NC(=O)C(C)(C)C)C(=O)O[C@]12C (stereo partly shown) [E4′] gave an MIC greater than 27 µM.
For CC[C@H]1OC(=O)[C@H](C)[C@@H](O[C@H]2CC(C)(OC)[C@@H](O)[C@H](C)O2)[C@H](C)[C@@H](O[C@@H]2O[C@H](C)C[C@H](N(C)C)[C@H]2O)[C@](C)(OC)C[C@@H](C)C(=O)[C@H](C)[C@H]2N(NCc3ccc([N+](=O)[O-])o3)C(=O)O[C@]12C (stereo partly shown) [A8′], the MIC was greater than 9 µM.
CC[C@H]1OC(=O)[C@H](C)[C@@H](O[C@H]2CC(C)(OC)[C@@H](O)[C@H](C)O2)[C@H](C)[C@@H](O[C@@H]2O[C@H](C)C[C@H](N(C)C)[C@H]2O)[C@](C)(OC)C[C@@H](C)C(=O)[C@H](C)[C@H]2N(NCc3c[nH]c(=O)[nH]c3=O)C(=O)O[C@]12C (stereo partly shown) [E8′] gave an MIC greater than 20 µM.
CC[C@H]1OC(=O)[C@H](C)[C@@H](O[C@H]2CC(C)(OC)[C@@H](O)[C@H](C)O2)[C@H](C)[C@@H](O[C@@H]2O[C@H](C)C[C@H](N(C)C)[C@H]2O)[C@](C)(OC)C[C@@H](C)C(=O)[C@H](C)[C@H]2N(NCc3nccn3C)C(=O)O[C@]12C (stereo partly shown) [B3′] was tested, and the MIC was greater than 18 µM.

Same assay, conditions: Table 4; read-out: MIC

In order of falling MIC:
1. CCC1OC(=O)C(C)C(OC2CC(C)(OC)C(O)C(C)O2)C(C)C(OC2OC(C)CC(N(C)C)C2O)C(C)(OC)CC(C)C(=NOCCC2OCCO2)C(C)C(O)C1(C)O (stereo not shown) [Compound 1GY11]  29.5 µM (≈ 25.5 µg/mL)
2. CCC1OC(=O)C(C)C(OC2CC(C)(OC)C(O)C(C)O2)C(C)C(OC2OC(C)CC(N(C)C)C2O)C(C)(OC)CC(C)C(=NOCCCCF)C(C)C(O)C1(C)O (stereo not shown) [Compound 1DP79]  3.5 µM (≈ 2.93 µg/mL)

Same assay, conditions: Table 5; read-out: MIC

In order of rising MIC:
1. CCC1OC(=O)C(C)C(OC2CC(C)(OC)C(O)C(C)O2)C(C)C(OC2OC(C)CC(N(C)C)C2OC(=S)Nc2ccccc2)C(C)(O)CC(C)C(=NOCOCCOC)C(C)C(O)C1(C)O (stereo not shown) [Compound 3ZZ59b]  5.6 µM (≈ 5.44 µg/mL)
2. CCC1OC(=O)C(C)C(O)C(C)C(OC2OC(C)CC([N+](C)(C)Cc3ccccc3)C2OCc2ccccc2)C(C)(OC)CC(C)C(=NOCc2ccccc2)C(C)C(O)C1(C)O (stereo not shown) [Compound 2GY11]  7.1 µM
3. CCC1OC(=O)C(C)C(OC2CC(C)(OC)C(OC(C)=O)C(C)O2)C(C)C(OC2OC(C)CC(N(C)C)C2OC(C)=O)C(C)(OC)CC(C)C(=O)C(C)C2N(NCCCc3ccnc4ccccc34)C(=O)OC12C (stereo not shown) [ITR0005]  7.7 µM (≈ 8.02 µg/mL)
4. CCC1OC(=O)C(C)C(OC2CC(C)(OC)C(O)C(C)O2)C(C)C(OC2OC(C)CC(N(C)C)C2O)C(C)(O)CC(C)C(=NN=Cc2cccc(OC(F)(F)F)c2)C(C)C(O)C1(C)O (stereo not shown) [Compound 1OK109]  11 µM (≈ 10.1 µg/mL)
5. CC[C@H]1OC(=O)[C@H](C)[C@@H](O)[C@H](C)[C@@H](O[C@@H]2O[C@H](C)C[C@H](N(C)C)[C@H]2O)[C@](C)(OC)C[C@@H](C)C(=NOCCc2ccccc2)[C@H](C)[C@@H](O)[C@]1(C)O [Compound 2GY7]  16 µM (≈ 11.3 µg/mL)
6. CCC1OC(=O)C(C)C(OC2CC(C)(OC)C(O)C(C)O2)C(C)C(OC2OC(C)CC(N(C)C)C2O)C(C)(O)CC(C)C(=NN=Cc2ccc(C(F)(F)F)cc2)C(C)C(O)C1(C)O (stereo not shown) [Compound 1OK95]  27 µM (≈ 24.4 µg/mL)
7. CCC1OC(=O)C(C)C(OC2CC(C)(OC)C(O)C(C)O2)C(C)C(OC2OC(C)CC(N(C)C)C2O)C(C)(OC)CC(C)C(=NOC(C)(C)CC(C)=O)C(C)C(O)C1(C)O (stereo not shown) [Compound 1GY27]  31 µM (≈ 26.7 µg/mL)
8. CCC1OC(=O)C(C)C(OC2CC(C)(OC)C(O)C(C)O2)C(C)C(OC2OC(C)CC(N(C)C)C2O)C(C)(O)CC(C)C(=NNCc2ccc(SC)cc2)C(C)C(O)C1(C)O (stereo not shown) [Compound 1OK137]  47 µM (≈ 41.6 µg/mL)
